Assay results: ChEMBL document CHEMBL4420076, “Amylin and calcitonin receptor agonist” (2017)
pEC50, pIC50: −log10 of the molar value. Numbered stars: 1 amine (or outer) side, 2 acyl side, 3 side chain; on linkers, the order of the positions; unused ones are H or OH. Peptide text beside a SMILES is read from it. * marks the point of attachment. C20 diacid = O=C(O)CCCCCCCCCCCCCCCCCCC(=O)*; C18 diacid = O=C(O)CCCCCCCCCCCCCCCCC(=O)*; γGlu = O=C(O)[C@H](CCC(=O)[*:2])N[*:1]

Key:
[1] = Solubility in 100 mM glycylglycine buffer at pH 5.0 incubated for 18 hrs by UPLC analysis; assay type: physicochemical
[2] = Solubility in 100 mM bistrispropane buffer at pH 7.5 incubated for 18 hrs by UPLC analysis; assay type: physicochemical
Calcitonin receptor [3] = target: T1, Calcitonin receptor (Homo sapiens, UniProt P30988); experiment: Agonist activity at human calcitonin receptor expressed in BHK570 cells assessed as increase in intracellular cAMP concentration incubated for 3 hrs in absence of albumin by CRE luciferase reporter gene assay; assay type: functional, cell-based
T1 sequence (P30988 whole entry): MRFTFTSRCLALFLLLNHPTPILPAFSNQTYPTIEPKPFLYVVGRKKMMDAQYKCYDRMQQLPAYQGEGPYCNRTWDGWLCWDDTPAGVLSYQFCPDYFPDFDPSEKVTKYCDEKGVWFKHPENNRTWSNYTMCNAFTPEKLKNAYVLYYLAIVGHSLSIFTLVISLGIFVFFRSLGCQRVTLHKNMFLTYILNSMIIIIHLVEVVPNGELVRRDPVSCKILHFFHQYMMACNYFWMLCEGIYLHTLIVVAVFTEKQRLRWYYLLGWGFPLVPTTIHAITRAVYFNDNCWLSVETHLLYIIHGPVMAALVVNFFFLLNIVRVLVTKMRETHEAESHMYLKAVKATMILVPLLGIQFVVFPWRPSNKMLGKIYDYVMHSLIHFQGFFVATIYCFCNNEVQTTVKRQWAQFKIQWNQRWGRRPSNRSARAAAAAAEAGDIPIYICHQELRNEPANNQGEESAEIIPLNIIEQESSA

[4] = Solubility in 100 mM bistrispropane buffer at pH 8.0 incubated for 18 hrs by UPLC analysis; assay type: physicochemical
[5] = Solubility in 100 mM glycylglycine buffer at pH 3.0 incubated for 18 hrs by UPLC analysis; assay type: physicochemical
Calcitonin receptor [6] = target: T1, Calcitonin receptor; experiment: Agonist activity at human calcitonin receptor expressed in BHK570 cells assessed as increase in intracellular cAMP concentration incubated for 3 hrs in presence of 10% FBS by CRE luciferase reporter gene assay; assay type: functional, cell-based
[7] = Solubility in 100 mM bistrispropane buffer at pH 6.5 incubated for 18 hrs by UPLC analysis; assay type: physicochemical
[8] = Solubility in 100 mM bistrispropane buffer at pH 6.0 incubated for 18 hrs by UPLC analysis; assay type: physicochemical
[9] = target: T2, Amylin receptor AMY3; CALCR/RAMP3 (Homo sapiens, UniProt O60896+P30988); experiment: Agonist activity at human amylin receptor expressed in BHK570 cells co-expressing RAMP3 assessed as increase in intracellular cAMP concentration incubated for 3 hrs in presence of 10% FBS by CRE luciferase reporter gene assay; assay type: functional, cell-based
T2 sequence (P30988 whole entry): T1 sequence (P30988 whole entry)
T2 sequence (O60896 whole entry): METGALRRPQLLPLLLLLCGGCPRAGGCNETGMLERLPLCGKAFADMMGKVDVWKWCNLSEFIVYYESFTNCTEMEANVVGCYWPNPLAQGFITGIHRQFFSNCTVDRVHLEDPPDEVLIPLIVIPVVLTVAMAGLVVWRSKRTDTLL

[10] = Solubility in 100 mM glycylglycine buffer at pH 4.0 incubated for 18 hrs by UPLC analysis; assay type: physicochemical
[11] = Solubility in 100 mM bistrispropane buffer at pH 7.0 incubated for 18 hrs by UPLC analysis; assay type: physicochemical
[12] = target: T2, Amylin receptor AMY3; CALCR/RAMP3; experiment: Agonist activity at human amylin receptor expressed in BHK570 cells co-expressing RAMP3 assessed as increase in intracellular cAMP concentration incubated for 3 hrs in absence of albumin by CRE luciferase reporter gene assay; assay type: functional, cell-based
[13] = target: T2, Amylin receptor AMY3; CALCR/RAMP3; experiment: Displacement of [125I]-labeled rat amylin from human amylin receptor expressed in BHK tkts13 whole cells co-expressing RAMP3 incubated for 60 mins by scintillation proximity assay; assay type: cell-based

SMILES | solubility at 18 h [1] [µM] | solubility at 18 h [2] [µM] | pEC50 (Calcitonin receptor [3]) | solubility at 18 h [4] [µM] | solubility at 18 h [5] [µM] | pEC50 (Calcitonin receptor [6]) | solubility at 18 h [7] [µM] | solubility at 18 h [8] [µM] | pEC50 [9] | solubility at 18 h [10] [µM] | solubility at 18 h [11] [µM] | pEC50 [12] | pIC50 [13]
CC(C)C[C@H](NC(=O)[C@H](CCCNC(=N)N)NC(=O)CNC(=O)[C@H](CC(C)C)NC(=O)[C@@H](NC(=O)[C@H](C)NC(=O)[C@@H](NC(=O)[C@@H](NC(=O)[C@H](CC(C)C)NC(=O)[C@H](CCC(=O)O)NC(=O)[C@H](CO)NC(=O)[C@H](C)NC(=O)CC[C@H](NC(=O)CCCCCCCCCCCCCCCCC(=O)O)C(=O)O)[C@@H](C)O)[C@@H](C)O)C(C)C)C(=O)N[C@@H](CCC(=O)O)C(=O)N[C@@H](C)C(=O)N[C@@H](CCC(=O)O)C(=O)N[C@@H](CC(C)C)C(=O)N[C@@H](Cc1cnc[nH]1)C(=O)N[C@@H](CCC(=O)O)C(=O)N[C@@H](CC(C)C)C(=O)N[C@H](C(=O)N[C@H](C(=O)N[C@@H](CC(C)C)C(=O)N1CCC[C@H]1C(=O)N[C@@H](CCCNC(=N)N)C(=O)N[C@H](C(=O)N[C@@H](CCC(=O)O)C(=O)N[C@H](C(=O)NCC(=O)N[C@H](C(=O)NCC(=O)N[C@H](C(=O)N1CCC[C@H]1C(N)=O)[C@@H](C)O)[C@@H](C)O)[C@@H](C)O)[C@@H](C)O)[C@@H](C)O)[C@@H](C)O ({C18 diacid-γGlu}-ASELTTAVLGRLEAELHELTTLPRTETGTGTP-NH2) | ≥ 200 | ≥ 200 | 10.18 | ≥ 200 | ≥ 200 | 10.51 | ≥ 200 | ≥ 200 | – | ≥ 200 | ≥ 200 | – | 7.71
CC(C)C[C@H](NC(=O)[C@H](C)NC(=O)[C@H](C)NC(=O)[C@@H](NC(=O)[C@H](CO)NC(=O)[C@H](CC(C)C)NC(=O)[C@H](CCC(=O)O)NC(=O)[C@H](CO)NC(=O)[C@H](C)NC(=O)CC[C@H](NC(=O)CCCCCCCCCCCCCCCCCCC(=O)O)C(=O)O)[C@@H](C)O)C(=O)NCC(=O)N[C@@H](CCCNC(=N)N)C(=O)N[C@@H](CC(C)C)C(=O)N[C@@H](CO)C(=O)N[C@@H](C)C(=O)N[C@@H](CCC(=O)O)C(=O)N[C@@H](CC(C)C)C(=O)N[C@@H](Cc1cnc[nH]1)C(=O)N[C@@H](CCC(=O)O)C(=O)N[C@@H](CC(C)C)C(=O)N[C@@H](C)C(=O)N[C@H](C(=O)N[C@@H](CC(C)C)C(=O)N1CCC[C@H]1C(=O)N[C@@H](CCCNC(=N)N)C(=O)N[C@H](C(=O)N[C@@H](CCC(=O)O)C(=O)N[C@H](C(=O)NCC(=O)N[C@H](C(=O)NCC(=O)N[C@H](C(=O)N1CCC[C@H]1C(N)=O)[C@@H](C)O)[C@@H](C)O)[C@@H](C)O)[C@@H](C)O)[C@@H](C)O ({C20 diacid-γGlu}-ASELSTAALGRLSAELHELATLPRTETGTGTP-NH2) | ≥ 200 | ≥ 200 | 10.35 | ≥ 200 | ≥ 200 | 10.25 | ≥ 200 | ≥ 200 | – | ≥ 200 | ≥ 200 | 10.30 | 9.22

Stronger by pEC50 (Calcitonin receptor [3]), values ahead:

solubility at 18 h [1] [µM] | solubility at 18 h [2] [µM] | pEC50 (Calcitonin receptor [3]) | solubility at 18 h [4] [µM] | solubility at 18 h [5] [µM] | pEC50 (Calcitonin receptor [6]) | solubility at 18 h [7] [µM] | solubility at 18 h [8] [µM] | pEC50 [9] | solubility at 18 h [10] [µM] | solubility at 18 h [11] [µM] | pEC50 [12] | pIC50 [13] | SMILES
≥ 200 | ≥ 200 | 11.10 | ≥ 200 | ≥ 200 | 10.72 | ≥ 200 | ≥ 200 | 10.41 | ≥ 200 | ≥ 200 | 10.89 | – | CC(C)C[C@H](NC(=O)[C@H](C)NC(=O)[C@H](C)NC(=O)[C@@H](NC(=O)[C@H](CO)NC(=O)[C@H](CC(C)C)NC(=O)[C@H](CCC(=O)O)NC(=O)[C@H](CO)NC(=O)[C@H](C)NC(=O)CC[C@H](NC(=O)CCCCCCCCCCCCCCCCC(=O)O)C(=O)O)[C@@H](C)O)C(=O)NCC(=O)N[C@@H](CCCNC(=N)N)C(=O)N[C@@H](CC(C)C)C(=O)N[C@@H](CO)C(=O)N[C@@H](C)C(=O)N[C@@H](CCC(=O)O)C(=O)N[C@@H](CC(C)C)C(=O)N[C@@H](Cc1cnc[nH]1)C(=O)N[C@@H](CCC(=O)O)C(=O)N[C@@H](CC(C)C)C(=O)N[C@@H](C)C(=O)N[C@H](C(=O)N[C@@H](CC(C)C)C(=O)N1CCC[C@H]1C(=O)N[C@@H](CCCNC(=N)N)C(=O)N[C@H](C(=O)N[C@@H](CCC(=O)O)C(=O)N[C@H](C(=O)NCC(=O)N[C@@H](CO)C(=O)N1CCC[C@H]1C(=O)N[C@@H](CO)C(=O)N1CCC[C@H]1C(N)=O)[C@@H](C)O)[C@@H](C)O)[C@@H](C)O ({C18 diacid-γGlu}-ASELSTAALGRLSAELHELATLPRTETGSPSP-NH2)
≥ 200 | ≥ 200 | 10.60 | ≥ 200 | ≥ 200 | – | ≥ 200 | ≥ 200 | 10.07 | ≥ 200 | ≥ 200 | 10.39 | – | CC(C)C[C@H](NC(=O)[C@H](C)NC(=O)[C@H](C)NC(=O)[C@@H](NC(=O)[C@H](CO)NC(=O)[C@H](CC(C)C)NC(=O)[C@H](CCC(=O)O)NC(=O)[C@H](CO)NC(=O)[C@H](C)NC(=O)CC[C@H](NC(=O)CCCCCCCCCCCCCCCCCCC(=O)O)C(=O)O)[C@@H](C)O)C(=O)NCC(=O)N[C@@H](CCCNC(=N)N)C(=O)N[C@@H](CC(C)C)C(=O)N[C@@H](CO)C(=O)N[C@@H](CCC(=O)O)C(=O)N[C@@H](CCC(=O)O)C(=O)N[C@@H](CC(C)C)C(=O)N[C@@H](Cc1cnc[nH]1)C(=O)N[C@@H](CCC(=O)O)C(=O)N[C@@H](CC(C)C)C(=O)N[C@@H](C)C(=O)N[C@H](C(=O)N[C@@H](CC(C)C)C(=O)N1CCC[C@H]1C(=O)N[C@@H](CCCNC(=N)N)C(=O)N[C@H](C(=O)N[C@@H](CCC(=O)O)C(=O)N[C@H](C(=O)NCC(=O)N[C@@H](CO)C(=O)NCC(=O)N[C@@H](CO)C(=O)N1CCC[C@H]1C(N)=O)[C@@H](C)O)[C@@H](C)O)[C@@H](C)O ({C20 diacid-γGlu}-ASELSTAALGRLSEELHELATLPRTETGSGSP-NH2)
≥ 200 | ≥ 200 | 10.82 | ≥ 200 | ≥ 200 | 9.95 | ≥ 200 | ≥ 200 | – | ≥ 200 | ≥ 200 | 10.77 | 8.72 | CC(C)C[C@H](NC(=O)[C@H](C)NC(=O)[C@H](C)NC(=O)[C@@H](NC(=O)[C@H](CO)NC(=O)[C@H](CC(C)C)NC(=O)[C@H](CCC(=O)O)NC(=O)[C@H](CO)NC(=O)[C@H](C)NC(=O)[C@H](C)NC(=O)[C@H](CCC(=O)O)NC(=O)CC[C@H](NC(=O)CCCCCCCCCCCCCCCCCCC(=O)O)C(=O)O)[C@@H](C)O)C(=O)NCC(=O)N[C@@H](CCCNC(=N)N)C(=O)N[C@@H](CC(C)C)C(=O)N[C@@H](CO)C(=O)N[C@@H](C)C(=O)N[C@@H](CCC(=O)O)C(=O)N[C@@H](CC(C)C)C(=O)N[C@@H](Cc1cnc[nH]1)C(=O)N[C@@H](CCC(=O)O)C(=O)N[C@@H](CC(C)C)C(=O)N[C@@H](C)C(=O)N[C@H](C(=O)N[C@@H](Cc1ccc(O)cc1)C(=O)N1CCC[C@H]1C(=O)N[C@@H](CCCNC(=N)N)C(=O)N[C@H](C(=O)N[C@@H](CCC(=O)O)C(=O)N[C@H](C(=O)NCC(=O)N[C@@H](CO)C(=O)NCC(=O)N[C@@H](CO)C(=O)N1CCC[C@H]1C(N)=O)[C@@H](C)O)[C@@H](C)O)[C@@H](C)O ({C20 diacid-γGlu}-EAASELSTAALGRLSAELHELATYPRTETGSGSP-NH2)
